For 26 molecules, IC50 results are on record in PubChem BioAssay AID1259246 (Broad Institute, 2017).

Several values for one entry are separate records, joined by “and”; a condition that tells them apart may be missing. Equal values may be shown once. Results filed as inconclusive are left out. Activity calls are given as the source filed them.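 Rule for the calls: active = valid dose-response fit whose half-maximal growth-inhibiting concentration is at or below a set limit above the top tested dose; inconclusive = flat fit with effect between 30 and 70%, or poor fit; inactive = half-maximal concentration above a set limit.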

The experiment has as its system Clostridioides difficile clinical isolate growth, OD600, 24 h. The experiment in a line: antibacterial activity against Clostridioides difficile – 10-point retest, dose response (AID 1259246).
In general, IC50 refers to the concentration that inhibits the measured activity by half. Consider `Cc1noc(C)c1NC(=O)Nc1cccc2c1O[C@H](CN(C)Cc1ccc(Oc3ccccc3)cc1)[C@H](C)CN([C@@H](C)CO)C2=O`, for which the IC50 is 57.4 µM and 36.1 µM. Then `CO[C@@H]1CN(C)C(=O)c2cc(NC(=O)Nc3ccc(Cl)c(Cl)c3)ccc2OC[C@H](C)NC[C@@H]1C`, with 17.8 µM and 12.5 µM; and `C[C@@H]1CN([C@@H](C)CO)C(=O)c2cccc(NC(=O)Nc3ccc(F)cc3)c2O[C@@H]1CN(C)Cc1ccc(-c2ccccc2)cc1`, with 4.56 µM and 1.71 µM and 1.93 µM. Then `C[C@H]1CN([C@@H](C)CO)S(=O)(=O)c2ccc(/C=C/c3ccccc3)cc2O[C@@H]1CN(C)Cc1ccc(C(=O)O)cc1`, with 62.8 µM; and `CO[C@H]1CN(C)C(=O)c2ccc(NC(=O)Nc3ccc(Cl)c(Cl)c3)cc2OC[C@H](C)NC[C@@H]1C`, with 37.6 µM; and `CO[C@@H]1CN(C)C(=O)c2cc(NC(=O)Nc3cc(Cl)cc(Cl)c3)ccc2OC[C@H](C)NC[C@@H]1C`, with 37.8 µM and 35.6 µM. In the case of `CO[C@@H]1CN(C)C(=O)c2cc(NC(=O)Nc3ccc(Cl)c(Cl)c3)ccc2OC[C@@H](C)NC[C@@H]1C`, the IC50 is 13.7 µM and 26.6 µM. Take `CO[C@@H]1CN(C)C(=O)c2cc(NC(=O)Nc3ccc(Cl)c(Cl)c3)ccc2OC[C@H](C)NC[C@H]1C`: the IC50 is 16 µM and 11.3 µM.

In the case of `CO[C@H](CN(C)C(=O)C1CCOCC1)[C@H](C)CN(C(=O)Nc1ccc(C(F)(F)F)cc1)[C@@H](C)CO`, the IC50 is 21.4 µM. In the case of `O=C(NCC[C@H]1CC[C@H](NC(=O)C2CC2)[C@@H](CO)O1)Nc1ccc(C(F)(F)F)cc1` it was 15.4 µM; in that of `C[C@@H]1CN([C@H](C)CO)C(=O)c2cc(NC(=O)Nc3cccc4ccccc34)ccc2O[C@@H](C)CCCCO[C@H]1CN(C)Cc1ccccc1`, 68.4 µM; in that of `CO[C@@H](CN(C)C(=O)C1CC1)[C@H](C)CN(C(=O)Nc1ccc(C(F)(F)F)cc1)[C@@H](C)CO`, 6.58 µM. In the case of `C[C@H](CO)N1C[C@H](C)[C@@H](CN(C)Cc2ccc(Oc3ccccc3)cc2)Oc2ccc(NC(=O)CCCN(C)C)cc2CC1=O` it was 64.1 µM. In the case of `CNC[C@@H]1Oc2ccc(NC(=O)Nc3ccccc3)cc2CC(=O)N([C@@H](C)CO)C[C@H]1C` it was > 270 µM (inactive); in that of `N#C[C@H]1[C@@H](c2ccc(C#Cc3ccccc3F)cc2)[C@@H](CO)N1C(=O)C1CCCCC1`, 157 µM. On to `Cc1ccc(S(=O)(=O)N[C@H]2CC[C@@H](CCNC(=O)Nc3ccc(Cl)cc3)O[C@H]2CO)cc1`, for which the IC50 was > 270 µM (inactive). In the case of `C[C@@H]1CN([C@H](C)CO)S(=O)(=O)c2ccc(/C=C/c3ccccc3)cc2O[C@H]1CN(C)Cc1ccc(C(=O)O)cc1` it was 6.11 µM; in that of `CO[C@H]1CN(C)C(=O)c2cc(NC(=O)Nc3cc(Cl)cc(Cl)c3)ccc2OC[C@H](C)NC[C@H]1C`, 41.2 µM and 8.16 µM.

For the molecule `CO[C@@H]1CN(C)C(=O)c2ccc(NC(=O)c3ccc(-c4ccccc4)cc3)cc2OC[C@@H](C)NC[C@@H]1C`, the IC50 is 62.8 µM.

On to `C[C@@H]1CN([C@@H](C)CO)C(=O)c2cccc(NC(=O)Nc3ccccc3)c2O[C@@H]1CN(C)Cc1ccc(-c2ccccc2)cc1`, for which the IC50 was 3.3 µM and 1.93 µM and 5.49 µM. In the case of `C[C@@H]1CN([C@@H](C)CO)C(=O)Cc2cc(NC(=O)CCCN(C)C)ccc2O[C@H]1CN(C)Cc1ccc(Oc2ccccc2)cc1`, the IC50 was 71.1 µM.

Consider `CO[C@H](CN(C)C(=O)C1CCOCC1)[C@@H](C)CN(C(=O)Nc1ccc(C(F)(F)F)cc1)[C@H](C)CO`, for which the IC50 was 14.5 µM. Then `Cc1ccc(-c2ccc3c(c2)O[C@@H](CN(C)Cc2ccc(C(=O)O)cc2)[C@H](C)CN([C@H](C)CO)S3(=O)=O)cc1`, with 97 µM; and `CO[C@@H]1CN(C)C(=O)c2ccc(NC(=O)Nc3cc(Cl)cc(Cl)c3)cc2OC[C@H](C)NC[C@H]1C`, with 153 µM and 36.2 µM; and `C[C@@H]1CCCCO[C@H](CN(C)CC2CCCCC2)[C@H](C)CN([C@H](C)CO)C(=O)c2cc(NC(=O)Nc3ccc(C(F)(F)F)cc3)ccc2O1`, with 5.06 µM and 44.8 µM and 31.8 µM. Then `O=C(NCC[C@@H]1CC[C@H](NC(=O)Nc2cc(F)ccc2F)[C@H](CO)O1)Nc1ccc(Cl)cc1`, with > 240 µM (inactive).
